Laboratory results: US20100266604A1, “USE OF TAM RECEPTOR INHIBITORS AS IMMUNOENHANCERS AND TAM ACTIVATORS AS IMMUNOSUPPRESSORS” (The Salk Institute for Biological Studies, priority 2007, published 2010)

Experiments:
Assay type in all cases: cell-based, mouse
[1] = test system: IRF-7 and IFI-204 mRNA in DCs; experiment: Q-PCR of IRF-7 and IFI-204 mRNA in DCs; details: BM-DCs, addition of Gas6 alone
Method: (§1) Splenic DCs (1×10^6 cells/ml) or BM-DCs (5×10^6 cells/ml) were cultured in serum-free medium and treated with the indicated concentrations of murine recombinant Gas6, murine recombinant Protein S, the TLR ligands indicated above, recombinant mouse IFNα (PBL Biomedical laboratories), recombinant mouse Axl-FC chimera (R&D), cyclohexamide (Sigma) or Actinomycin D (Sigma). Whole cell lysates and RNA extraction were performed as indicated below.
(§2) After stimulation, cells were harvested, and total RNA was isolated using the RNeasy mini kit (Qiagen). Reverse transcription was performed according to manufacturer instructions with RT Superscript III (Invitrogen). PCR reactions were performed on an ABI Prism 7700 Sequence Detection System using SYBRGreen PCR master mix (Applied Biosystems). Each reaction was normalized against the expression of β-actin or GAPDH. Analyses of dissociation curves were performed with SDS software (Applied Biosystems) to ensure the absence of nonspecific amplification. Q-PCR primers used herein are listed below.

[2] = test system: IκBα and IκBβ degradation (NF-κB pathway) in BM-DCs; experiment: Quantitative Li-Cor Odyssey Western blot of TLR-induced IκB degradation
Method: as §1
(§3) DCs were washed in PBS and harvested in NuPage LDS sample buffer (Invitrogen) with 100 μM DTT. Whole cell lysates were resolved by electrophoresis, proteins were transferred to a PVDF membrane (Immobilon P, Millipore), blocked in 3% BSA/TBS-Tween-20 and probed with the indicated antibodies. For fluorescent western blotting with the Odyssey system, proteins were transferred to an Immobilon-FL PVDF membrane (Millipore) and incubated with two primary antibodies in 0.1% casein/PBS-Tween-20. Following incubation with fluorescence-labeled secondary antibodies, membranes were scanned with the Odyssey imaging system (LI-COR).

[3] = test system: TRAF6 and TRAF3 polyubiquitylation in BM-DCs; experiment: Ubiquitylation assay of TRAF6 and TRAF3; details: 30 minutes LPS, 2-hour prior incubation with Gas6
Method: For ubiquitylation assays, 5×10^6 BM-DCs per condition were harvested in PBS containing 1% SDS and boiled for 5 minutes. PBS containing 1% Triton X-100, 1 mM DTT, 1 mM Na3VO4, 5 mM NaF and protease inhibitors (Complete, Roche) was added and the mixture was sonicated. Lysates were precleared for 1 hour by incubation with Immobilized rProteinA (RepliGen) and incubated overnight with primary antibody at 4° C. Immobilized rProteinA was added for the last 2 hours. The immunoprecipitates were washed in PBS containing 0.2% NP-40 and 0.5 M LiCl and resuspended and boiled in NuPage LDS sample buffer (Invitrogen) with 100 μM DTT.

[4] = test system: phospho-STAT1 (Y701), phospho-STAT2, phospho-STAT3 in DCs; experiment: Immunoblot of STAT phosphorylation in DCs
Method: as §1, §3

[5] = test system: TLR-induced cytokine production in DCs; experiment: DC activation assay: TLR-induced cytokine production (ELISA / ISRE luciferase reporter)
Method: Splenic DC or BM-DCs (1×10^6 cells/ml) were cultured overnight in serum-free medium (StemSpan, StemCell Technologies Inc.) in the presence of the indicated concentrations of LPS from Salmonella minnesota R595 Re (Alexis), CpG-ODN 1668 (TCCATGACGTTCCGATGCT; SEQ ID NO: 19; Integrated DNA Technologies) or Poly I:C (InvivoGen) alone or in the presence of murine recombinant Gas6 (R&D Systems) or murine recombinant Protein S (produced as described in Prasad et al., (2006) Mol Cell Neurosci 33:96-108). Cytokine production was quantified in cell-free supernatants by ELISA (ebioscience for IL-12, IL-6 and TNFα and PBL-biomedical for IFNα) or by a luciferase assay using a cell line containing an ISRE-responsive element luciferase reporter construct for Type I IFN (Jiang et al., (2005) Nat Immunol 6:565-570).

[6] = test system: SOCS1 and SOCS3 mRNA in DCs; experiment: Q-PCR of SOCS1 and SOCS3 mRNA in DCs
Method: as §1, §2

[7] = test system: p38 and ERK1/2 phosphorylation in BM-DCs; experiment: Immunoblot of TLR-induced MAP kinase activation (phospho-p38, phospho-ERK1/2)
Method: as §1, §3

[8] = test system: IRAK-M, SHIP, ATF-3, IRF-4, Triad3A and Tollip mRNA in BM-DCs; experiment: Q-PCR of other negative regulators of TLR signaling; details: following TAM receptor activation with 50 nM Gas6
Method: as §1, §2

DCs = experiment: DC viability after Gas6 treatment
[9] = poly I:C, prior treatment with Gas6

Gas6: murine recombinant Gas6 (R&D Systems), TAM receptor ligand/agonist
induction of IRF-7 and IFI-204 [1]: not induced
CpG-induced degradation of IκBα and IκBβ ([2]; BM-DCs, prior incubation with ligand): completely blocked
kinetics and magnitude of CpG-induced degradation of IκBα and IκBβ ([2]; in the presence of cycloheximide or actinomycin D): the same, irrespective of the presence or absence of Gas6
Activation of the NF-κB pathway by TLR3 [2, 9]: inhibited
LPS-induced polyubiquitylation of TRAF6 and TRAF3 [3]: potently inhibited
activation of STAT2 and 3 ([4]; DC cultures, addition of Gas6): not detected
STAT1 tyrosine phosphorylation ([4]; Ifnar−/− BM-DCs, Gas6 application): incapable of activating STAT1
STAT1 activation (phospho-STAT1 Y701) ([4]; TAM triple mutant DCs, Gas6): not seen
STAT1 activation (phospho-STAT1 Y701) ([4]; wild-type DCs, incubation with Gas6): activated
LPS-induced production of IL-6 ([5]; Ifnar−/− DCs, Gas6): unable to inhibit
expression of IL6 triggered by LPS or CpG ([5]; STAT1−/− DCs, 50 nM Gas6, 15 hours): not inhibited
poly I:C-induced Type I IFN ([5]; TLR3 activated by poly I:C, 15 hours, 50 nM Gas6): comparable Gas6-mediated inhibition
LPS-induced IL6 and TNFα production ([5]; TLR4 activated by LPS, 15 hours, 50 nM Gas6): comparable Gas6-mediated inhibition
TLR9-induced production of Type I IFNs, IL6, and TNFα ([5]; wild-type DCs, overnight (15 hours) co-incubation with CpG, 50 nM Gas6): substantially inhibited
SOCS3 mRNA peak expression ([6]; BM-DCs, 50 nM Gas6, around 90 minutes): approximately 10 fold
SOCS1 expression ([6]; Ifnar−/− DCs, Gas6): unable to up-regulate
Gas6-mediated induction of SOCS1 mRNA ([6]; STAT1−/− DCs): completely abolished
Gas6 induction of SOCS3 mRNA ([6]; STAT1−/− DCs): substantially reduced
SOCS1 mRNA expression increase ([6]; WT BM-DCs, 50 nM Gas6, 120 minutes): approximately 10 fold
CpG-induced phosphorylation of p38 and ERK1/2 ([7]; 1 μM CpG, 2-hour prior incubation with ligand): completely blocked
activation of p38 and ERK1/2 as a consequence of TLR4 ligation ([7]; LPS, prior incubation with Gas6): inhibited
Activation of the MAP kinase pathway by TLR3 [7, 9]: inhibited
induction of IRAK-M, SHIP, ATF-3, IRF-4, Triad3A, Tollip mRNAs [8]: none of these mRNAs displayed significant induction
DC viability (DCs): unaffected
